# Measurements from patent publication US20020111274A1, “1-alkyl-3-[1-(substituted phenyl) benzotriazol-6-yl] uracils” (BASF Aktiengesellschaft, priority 2000, published 2002).
# Experiments:
# Parameters in all cases: scale not given here
# ORYSAT Rice, Tebonnet [1] = experiment: Postemergence herbicidal evaluation, ORYSAT; assay type: in vivo, Oryza sativa, (L.); conditions: postemergence spray, rated about two-three weeks after treatment
# In short: (§1)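 Plants are raised for roughly two weeks, then treated postemergence with compound dispersed in acetone/water (80/20) plus 1.0% seed oil adjuvant, at rates of about 0.006 kg to 0.400 kg per hectare. After greenhouse care, damage is scored two to three weeks later.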
# GLXMAW Soybean, Williams [2] = experiment: Postemergence herbicidal evaluation, GLXMAW; assay type: in vivo, Glycine max, (L.) Merr. cv Williams; conditions: postemergence spray, rated about two-three weeks after treatment
# In short: as §1
# ORYSAT Rice, Tebonnet [3] = experiment: Preemergence herbicidal evaluation, ORYSAT; assay type: in vivo, Oryza sativa, (L.); conditions: preemergence
# In short: (§2)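 Compound applied preemergence as an aqueous acetone spray onto freshly planted cups, dose equivalent approx. 0.013 to 0.800 kg/ha. Evaluation by rating at weeks 4–5.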
# CASOB Sicklepod [4] = experiment: Preemergence herbicidal evaluation, CASOB; assay type: in vivo, Cassia obtusifolia, L.; conditions: preemergence
# In short: as §2
# ABUTH Velvetleaf = experiment: Preemergence herbicidal evaluation, ABUTH; assay type: in vivo, Abutilon theophrasti, Medic.; conditions: preemergence
# In short: as §2
# [5] = test system: CHEAL Lambsquarters, Common; experiment: Postemergence herbicidal evaluation, CHEAL; assay type: in vivo, Chenopodium album, L.; conditions: postemergence spray, rated about two-three weeks after treatment
# In short: as §1
# SETVI Foxtail, Green = experiment: Postemergence herbicidal evaluation, SETVI; assay type: in vivo, Setaria viridis, (L.) Beau; conditions: postemergence spray, rated about two-three weeks after treatment
# In short: as §1
# ECHOG Barnyardgrass = experiment: Postemergence herbicidal evaluation, ECHOG; assay type: in vivo, Echinochloa crus-galli, (L.) Beau; conditions: postemergence spray, rated about two-three weeks after treatment
# In short: as §1
# [6] = test system: IPOHE Morningglory, Ivyleaf; experiment: Postemergence herbicidal evaluation, IPOHE; assay type: in vivo, Ipomoea hederacea, (L.) Jacq.; conditions: postemergence spray, rated about two-three weeks after treatment
# In short: as §1
# CASOB Sicklepod [7] = experiment: Postemergence herbicidal evaluation, CASOB; assay type: in vivo, Cassia obtusifolia, L.; conditions: postemergence spray, rated about two-three weeks after treatment
# In short: as §1
# [8] = test system: TRZAWR Wheat, Winter, cv Riband; experiment: Postemergence herbicidal evaluation, TRZAWR; assay type: in vivo, Triticum aestivum; conditions: postemergence spray, rated about two-three weeks after treatment
# In short: as §1
# GLXMAW Soybean, Williams [9] = experiment: Preemergence herbicidal evaluation, GLXMAW; assay type: in vivo, Glycine max, (L.) Merr. cv Williams; conditions: preemergence
# In short: as §2
compound,measurement,setting,value
COc1ccc(C)c(-n2nnc3cc(F)c(-n4c(=O)cc(C(F)(F)F)n(C)c4=O)cc32)c1 [Example 22],Postemergence herbicidal rating ORYSAT,"ORYSAT Rice, Tebonnet [1]; 0.008 kg/ha",2.0
same,Postemergence herbicidal rating ORYSAT,"ORYSAT Rice, Tebonnet [1]; 0.016 kg/ha",2.5
same,Postemergence herbicidal rating ORYSAT,"ORYSAT Rice, Tebonnet [1]; 0.032 kg/ha",3.0
same,Postemergence herbicidal rating ORYSAT,"ORYSAT Rice, Tebonnet [1]; 0.062 kg/ha",3.0
same,Postemergence herbicidal rating GLXMAW,"GLXMAW Soybean, Williams [2]; 0.008 kg/ha",4.0
same,Postemergence herbicidal rating GLXMAW,"GLXMAW Soybean, Williams [2]; 0.016 kg/ha",4.5
same,Postemergence herbicidal rating GLXMAW,"GLXMAW Soybean, Williams [2]; 0.032 kg/ha",4.0
same,Postemergence herbicidal rating GLXMAW,"GLXMAW Soybean, Williams [2]; 0.062 kg/ha",5.0
same,ORYSAT herbicidal rating,"ORYSAT Rice, Tebonnet [3]; rate 0.016 kg/ha",0.0
same,ORYSAT herbicidal rating,"ORYSAT Rice, Tebonnet [3]; rate 0.032 kg/ha",0.0
same,ORYSAT herbicidal rating,"ORYSAT Rice, Tebonnet [3]; rate 0.062 kg/ha",0.0
same,ORYSAT herbicidal rating,"ORYSAT Rice, Tebonnet [3]; rate 0.125 kg/ha",0.0
same,CASOB herbicidal rating,CASOB Sicklepod [4]; rate 0.016 kg/ha,0.0
same,CASOB herbicidal rating,CASOB Sicklepod [4]; rate 0.032 kg/ha,0.0
same,CASOB herbicidal rating,CASOB Sicklepod [4]; rate 0.062 kg/ha,0.0
same,CASOB herbicidal rating,CASOB Sicklepod [4]; rate 0.125 kg/ha,0.0
same,ABUTH herbicidal rating,ABUTH Velvetleaf; rate 0.016 kg/ha,0.0
same,ABUTH herbicidal rating,ABUTH Velvetleaf; rate 0.032 kg/ha,9.0
same,ABUTH herbicidal rating,ABUTH Velvetleaf; rate 0.062 kg/ha,9.0
same,ABUTH herbicidal rating,ABUTH Velvetleaf; rate 0.125 kg/ha,7.0
same,Postemergence herbicidal rating CHEAL,[5]; 0.008 kg/ha,9.0
same,Postemergence herbicidal rating CHEAL,[5]; 0.016 kg/ha,9.0
same,Postemergence herbicidal rating CHEAL,[5]; 0.032 kg/ha,3.0
same,Postemergence herbicidal rating CHEAL,[5]; 0.062 kg/ha,4.0
same,Postemergence herbicidal rating SETVI,"SETVI Foxtail, Green; 0.008 kg/ha",0.0
same,Postemergence herbicidal rating SETVI,"SETVI Foxtail, Green; 0.016 kg/ha",0.0
same,Postemergence herbicidal rating SETVI,"SETVI Foxtail, Green; 0.032 kg/ha",0.0
same,Postemergence herbicidal rating SETVI,"SETVI Foxtail, Green; 0.062 kg/ha",0.0
same,Postemergence herbicidal rating ECHCG,ECHOG Barnyardgrass; 0.008 kg/ha,0.0
same,Postemergence herbicidal rating ECHCG,ECHOG Barnyardgrass; 0.016 kg/ha,0.0
same,Postemergence herbicidal rating ECHCG,ECHOG Barnyardgrass; 0.032 kg/ha,0.0
same,Postemergence herbicidal rating ECHCG,ECHOG Barnyardgrass; 0.062 kg/ha,0.0
same,Postemergence herbicidal rating IPOHE,[6]; 0.008 kg/ha,2.0
same,Postemergence herbicidal rating IPOHE,[6]; 0.016 kg/ha,2.0
same,Postemergence herbicidal rating IPOHE,[6]; 0.032 kg/ha,9.0
same,Postemergence herbicidal rating IPOHE,[6]; 0.062 kg/ha,2.0
same,Postemergence herbicidal rating CASOB,CASOB Sicklepod [7]; 0.008 kg/ha,0.0
same,Postemergence herbicidal rating CASOB,CASOB Sicklepod [7]; 0.016 kg/ha,0.0
same,Postemergence herbicidal rating CASOB,CASOB Sicklepod [7]; 0.032 kg/ha,0.0
same,Postemergence herbicidal rating CASOB,CASOB Sicklepod [7]; 0.062 kg/ha,0.0
same,Postemergence herbicidal rating TRZAWR,[8]; 0.008 kg/ha,3.0
same,Postemergence herbicidal rating TRZAWR,[8]; 0.016 kg/ha,3.5
same,Postemergence herbicidal rating TRZAWR,[8]; 0.032 kg/ha,4.0
same,Postemergence herbicidal rating TRZAWR,[8]; 0.062 kg/ha,4.5
same,GLXMAW herbicidal rating,"GLXMAW Soybean, Williams [9]; rate 0.016 kg/ha",0.0
same,GLXMAW herbicidal rating,"GLXMAW Soybean, Williams [9]; rate 0.032 kg/ha",0.0
same,GLXMAW herbicidal rating,"GLXMAW Soybean, Williams [9]; rate 0.062 kg/ha",0.0
same,GLXMAW herbicidal rating,"GLXMAW Soybean, Williams [9]; rate 0.125 kg/ha",0.0
